# From patent US11702400B2, “Salt types, crystal forms, and preparation methods for benzopyrazole compounds as RHO kinase inhibitors” (MEDSHINE DISCOVERY INC., priority 2019, dated 2023)
# Columns and labels:
# [1] = Solid stability test of the crystal form A of the compound of formula (II-1) (XRPD); assay type: physicochemical
# Description: About 10 mg of the crystal form was accurately weighed and added to a dry and clean glass flask, spread into a thin layer, covered with aluminum foil, pierced small holes and placed under the influence factor test conditions and under accelerated conditions. Samples placed under illumination (visible light 1200000 Lux, UV 200 W) conditions were placed in clear glass flasks, fully exposed, and samples used for XRPD detection were placed separately.
# After the samples were removed at the time point, the cover was covered, and the flask was sealed using sealing film, and stored in −20° C. refrigerator. When preparing the sample, the sample was removed from the refrigerator, restored to room temperature; 10 mL of 80% ACN was added, and the sample was dissolved by sonication for 2 min to obtain a solution with a concentration of about 1 mg/mL, then the liquid phase was used for injection analysis, and the detection results were compared with the initial detection results on day 0.
# Preparation of standard solution on day 0: About 10 mg of the crystal was weighed and added to a 10 mL volumetric flask, dissolved with 80% ACN and the volume was fixed to the scale.
# [2] = Accelerated stability test of the crystal form A of the compound of formula (II-1); assay type: physicochemical; conditions: long-term placement conditions
# [3] = as above; assay type: physicochemical; conditions: 40° C./75% RH
# Description: Accelerated stability test: each sample was weighed 0.8 g (accelerated 1 month, accelerated 2 months) or 1.2 g (accelerated 3 months, accelerated 6 months) into double-layer low-density polyethylene (LDPE) bags, and each layer of LDPE bags was pierced and sealed, and then the LDPE bags were put into aluminum foil bags and heat sealed, respectively, and put into 40° C./75% RH conditions for investigation.
# [4] = Influence factor stability test of the crystal form A of the compound of formula (II-1); assay type: physicochemical
# Description: High humidity (25° C./92.5% RH): 1 g of each sample was weighed and the sample was placed in an open flat weighing bottle (70×35 mm) under 25° C./92.5% RH conditions, and then placed in a comprehensive drug stability chamber (25° C./92.5% RH) for investigation.
# High temperature (60° C.): 1 g of each sample was weighed and the sample was placed in an open flat weighing bottle under 60° C. conditions, and then placed in a blast drying oven (60° C.) for investigation.
# Illumination: 1 g of each sample was weighed. The samples with illumination condition were placed in a clean watch glass, spread into a thin layer and put into 5000±500 lux (visible light) with 90 μw/cm^2 (UV) conditions for illumination.
# [5] = Pharmacokinetic study of the crystal form A of the compound of formula (II-1) in Beagle dogs; assay type: in vivo
# Description: Experimental purpose: To study the pharmacokinetics of the compounds in Beagle dogs
# Experimental materials: Beagle dogs (12, half male and half female)
# Experimental procedure: The pharmacokinetic characteristics of the compounds were tested in Beagle dogs after intravenous (IV) and oral (PO) administration using standard protocols. The candidate compounds were prepared into 0.5 mg/mL and 1.5 mg/mL clarified solutions and administrated to Beagle dogs for single intravenous injection and oral administration. The solvent for both intravenous and oral administration was 5% DMSO/95% (10% hydroxypropyl β-cyclodextrin) aqueous solution. 12 beagle dogs were used in this project, 6 beagle dogs (half male and half female) were administered intravenously at a dose of 1 mg/kg and plasma samples were collected at […], 0.5, 1, 2, 4, 8, 12, 24, 36, 48 and 72 h after administration, and the other 6 beagle dogs (half male and half female) were administered orally by gavage at a dose of 7.5 mg/kg and plasma samples were collected at 0.25, 0.5, 1, 2, 4, 8, 12, 24, 36, 48 and 72 h after administration. 15 μL of plasma sample was added to a 96-well plate, and 300 μL of internal standard working solution (MeOH (containing 1.00 ng/mL Verapamil and 0.1% formic acid (FA)): ACN (v:v, 50:50) solution) was added to precipitate the proteins, the 96-well plate was shaken for 15 min, followed by centrifugation at 4° C., 3220 g for 15 min. 150 μL of supernatant was placed in a new 96-well plate with 150 μL of aqueous solution containing 0.1% formic acid (FA) and shaken for 10 min, and then centrifuged at 4° C., 3220 g for 5 min. The sample was directly injected, and the plasma drug concentration was quantitatively analyzed by LC-MS/MS analysis method, and pharmacokinetic parameters were calculated, such as peak concentration (Cmax), clearance rate (CL), half-life (T1/2), […] (Vdss), area under the drug-time curve (AUC0-last), bioavailability (F), etc.
structure (smiles),measurement,setting,value
COc1cccc(C(CN)NC(=O)c2cc(-c3ccc4[nH]nc(C)c4c3)ccn2)c1.Cl.Cl (stereo not drawn),Crystal form,[1]; 0 day,Crystal form A
same,solid stability (conclusion in words),[1]; 92.5% high humidity conditions,crystal transformation will occur
same,Crystal form,"[1]; High humidity (relative humidity 75%, open), 5 days",Crystal form A
same,Crystal form,"[1]; High humidity (relative humidity 75%, open), 10 days",Crystal form A
same,Crystal form,"[1]; High humidity (relative humidity 92.5%, open), 5 days",Crystal form C
same,Crystal form,"[1]; High humidity (relative humidity 92.5%, open), 10 days",Crystal form C
same,Crystal form,"[1]; High temperature (60° C., open), 5 days",Crystal form A
same,Crystal form,"[1]; High temperature (60° C., open), 10 days",Crystal form A
same,Crystal form,"[1]; High temperature and humidity (40° C. relative humidity 75%, open), 5 days",Crystal form A
same,Crystal form,"[1]; High temperature and humidity (40° C. relative humidity 75%, open), 10 days",Crystal form A
same,Crystal form,"[1]; High temperature and humidity (60° C. relative humidity 75%, open), 5 days",Crystal form A
same,Crystal form,"[1]; High temperature and humidity (60° C. relative humidity 75%, open), 10 days",Crystal form A
same,Crystal form,"[1]; Illumination (total illuminance = 1.2 × 10^6 Lux·hr/near UV = 200 w·hr/m^2, open), 5 days",Crystal form A
same,Crystal form,"[1]; Illumination (total illuminance = 1.2 × 10^6 Lux·hr/near UV = 200 w·hr/m^2, open), 10 days",Crystal form A
same,solid stability (conclusion in words),"[1]; high temperature, 75% humidity and strong illumination conditions",good stability
same,stability in accelerated test (conclusion in words),[2],stable
same,Content,[3]; 0 day,99.5%
same,Impurity at RRT 0.66,[3]; 0 day,0.06%
same,Impurity at RRT 0.85,[3]; 0 day,0.34%
same,Impurity at RRT 0.90,[3]; 0 day,0.02%
same,Impurity at RRT 1.64,[3]; 0 day,0.06%
same,Total impurities,[3]; 0 day,0.46%
same,Content,[3]; 1 month,100.0%
same,Impurity at RRT 0.66,[3]; 1 month,0.06%
same,Impurity at RRT 0.85,[3]; 1 month,0.36%
same,Impurity at RRT 0.90,[3]; 1 month,0.02%
same,Impurity at RRT 1.64,[3]; 1 month,0.05%
same,Total impurities,[3]; 1 month,0.47%
same,Content,[3]; 2 months,99.6%
same,Impurity at RRT 0.66,[3]; 2 months,0.06%
same,Impurity at RRT 0.85,[3]; 2 months,0.33%
same,Impurity at RRT 0.90,[3]; 2 months,0.03%
same,Impurity at RRT 1.64,[3]; 2 months,0.04%
same,Total impurities,[3]; 2 months,0.39%
same,Content,[3]; 3 months,98.8%
same,Impurity at RRT 0.66,[3]; 3 months,0.06%
same,Impurity at RRT 0.85,[3]; 3 months,0.33%
same,Impurity at RRT 0.90,[3]; 3 months,0.04%
same,Impurity at RRT 1.64,[3]; 3 months,0.04%
same,Total impurities,[3]; 3 months,0.39%
same,Content,[4]; 0 day,99.5%
same,Impurity at relative retention time (RRT) 0.66,[4]; 0 day,0.06%
same,Impurity at relative retention time (RRT) 0.85,[4]; 0 day,0.34%
same,Impurity at relative retention time (RRT) 0.90,[4]; 0 day,0.02%
same,Impurity at relative retention time (RRT) 1.64,[4]; 0 day,0.06%
same,Total impurities,[4]; 0 day,0.46%
same,Content,"[4]; 25° C./92.5% RH, 1 month",98.9%
same,Impurity at relative retention time (RRT) 0.66,"[4]; 25° C./92.5% RH, 1 month",0.06%
same,Impurity at relative retention time (RRT) 0.85,"[4]; 25° C./92.5% RH, 1 month",0.32%
same,Impurity at relative retention time (RRT) 0.90,"[4]; 25° C./92.5% RH, 1 month",0.03%
same,Impurity at relative retention time (RRT) 1.64,"[4]; 25° C./92.5% RH, 1 month",0.05%
same,Total impurities,"[4]; 25° C./92.5% RH, 1 month",0.43%
same,Content,"[4]; 60° C., 1 month",99.6%
same,Impurity at relative retention time (RRT) 0.66,"[4]; 60° C., 1 month",0.06%
same,Impurity at relative retention time (RRT) 0.85,"[4]; 60° C., 1 month",0.31%
same,Impurity at relative retention time (RRT) 0.90,"[4]; 60° C., 1 month",0.06%
same,Impurity at relative retention time (RRT) 1.64,"[4]; 60° C., 1 month",0.04%
same,Total impurities,"[4]; 60° C., 1 month",0.43%
same,Content,"[4]; Illumination, 10 days",97.6%
same,Impurity at relative retention time (RRT) 0.66,"[4]; Illumination, 10 days",0.09%
same,Impurity at relative retention time (RRT) 0.85,"[4]; Illumination, 10 days",0.31%
same,Impurity at relative retention time (RRT) 0.90,"[4]; Illumination, 10 days",0.02%
same,Impurity at relative retention time (RRT) 1.64,"[4]; Illumination, 10 days",0.05%
same,Total impurities,"[4]; Illumination, 10 days",0.51%
same,stability in influence factor test (conclusion in words),"[4]; illumination, high temperature and high humidity",stable
same,Clearance rate CL,"[5]; Beagle dogs, IV 1 mg/kg",22.3 mL/min/kg
same,Half-life T1/2 (IV),"[5]; Beagle dogs, IV 1 mg/kg",12.4 h
same,Tissue distribution Vdss,"[5]; Beagle dogs, IV 1 mg/kg",18.6 L/kg
same,Bioavailability F,"[5]; Beagle dogs, IV 1 mg/kg, PO 7.5 mg/kg",90.4%
same,Area under drug-time curve AUC0-last PO,"[5]; Beagle dogs, PO 7.5 mg/kg",12.6 µM·h
same,Cmax,"[5]; Beagle dogs, half male and half female, PO 7.5 mg/kg, read-out: Peak concentration Cmax",834 nM
same,pharmacokinetic properties (conclusion in words),[5]; beagle dogs,good pharmacokinetic properties
